Experimental data reported in the supplement of paper PMC11281043.

Columns and labels:
Conditions in all cases: exposure: 6-8 hpf to 5 dpf, scored at 6 dpf
[1] = tested on: Danio rerio embryo/larva; assay: max % larvae with edema across tested concentrations; higher = more toxic; extreme values may be limits of the assay
[2] = tested on: Danio rerio embryo/larva; assay: max % larvae with blood pooling across tested concentrations; higher = more toxic; extreme values may be limits of the assay
[3] = tested on: Danio rerio embryo/larva; assay: max % larvae with pigmentation defects across tested concentrations; higher = more toxic
[4] = tested on: Danio rerio embryo/larva; assay: max % larvae with craniofacial defects across tested concentrations; higher = more toxic; extreme values may be limits of the assay
[5] = tested on: Danio rerio embryo/larva; assay: max % larvae generally abnormal across tested concentrations; higher = more toxic; extreme values may be limits of the assay
[6] = tested on: Danio rerio embryo/larva; assay: max % larvae with spinal defects across tested concentrations; higher = more toxic; extreme values may be limits of the assay
[7] = tested on: Danio rerio embryo/larva; assay: max % larvae with tail defects across tested concentrations; higher = more toxic; extreme values may be limits of the assay
[8] = tested on: Danio rerio embryo/larva; assay: max % larvae with uninflated swim bladder across tested concentrations; higher = more toxic; extreme values may be limits of the assay
[9] = tested on: Danio rerio embryo/larva; assay: max % larvae with abnormal position across tested concentrations; higher = more toxic; extreme values may be limits of the assay
[10] = tested on: Danio rerio embryo/larva; assay: max % larvae unhatched across tested concentrations; max tested concentration (log10 uM): 2; higher = more toxic
[11] = tested on: Danio rerio embryo/larva; assay: max % larvae with any abnormality across tested concentrations; max tested concentration (log10 uM): 2; higher = more toxic; extreme values may be limits of the assay

SMILES	max % larvae [1] [%]	max % larvae [2] [%]	max % larvae [3] [%]	max % larvae [4] [%]	max % larvae generally abnormal across tested concentrations [5] [%]	max % larvae [6] [%]	max % larvae [7] [%]	max % larvae [8] [%]	max % larvae [9] [%]	max % larvae unhatched across tested concentrations [10] [%]	max % larvae [11] [%]
C[N+](C)(C)CCCNS(=O)(=O)C(F)(F)C(F)(F)C(F)(F)C(F)(F)C(F)(F)C(F)(F)C(F)(F)C(F)(F)F (max tested concentration (log10 uM): 1.47712)	50	0	0	50	50	0	0	25	12.5		
O=C(CC(=O)C(F)(F)F)C(F)(F)F [1,1,1,5,5,5-Hexafluoro-2,4-pentanedione] (max tested concentration (log10 uM): 2)	0	0	0	0	0	0	0	0	0		
FC(F)(Br)C(F)(F)C(F)(F)C(F)(F)C(F)(F)C(F)(F)Br [1,6-Dibromododecafluorohexane] (max tested concentration (log10 uM): 2)	4.17	0	0	0	4.17	0	0	0	0		
CCCCCCCCC(F)(F)C(F)(F)C(F)(F)C(F)(F)C(F)(F)C(F)(F)F [1-(Perfluorohexyl)octane] (max tested concentration (log10 uM): 1.60206)	0	0	0	0	0	0	0	0	0		
FC(F)(F)C(F)(F)C(F)(F)C(F)(F)C(F)(F)C(F)(F)C(F)(F)CCI [1-Iodo-1H,1H,2H,2H-perfluorononane] (max tested concentration (log10 uM): 1.60206)	0	0	0	0	0	0	0	0	0		
FC(F)(F)C(F)(F)C(F)(F)C(F)(F)C(F)(F)C(F)(F)C(F)(F)I [1-Iodopentadecafluoroheptane] (max tested concentration (log10 uM): 2)	30	16.7	0	10		8.33	0	80	10.4		
FC(F)(F)C(F)(F)C(F)(F)C(F)(F)CCI [1H,1H,2H,2H-Perfluorohexyl iodide] (max tested concentration (log10 uM): 2)	8.33	0	0	0	8.33	0	0	0	0		
Cc1ccc(S(=O)(=O)OCC(F)(F)C(F)(F)C(F)(F)C(F)(F)C(F)(F)C(F)F)cc1 [1H,1H,7H-Perfluoroheptyl 4-methylbenzenesulfonate] (max tested concentration (log10 uM): 2)	16.7	0	0	16.7		4.17	0	75	4.17		
C=CC(=O)OCC(F)(F)C(F)(F)C(F)(F)C(F)(F)C(F)(F)C(F)(F)C(F)(F)C(F)F [1H,1H,9H-Perfluorononyl acrylate]										0	16.7
OCC(F)(F)OC(F)(F)C(F)(F)OC(F)(F)C(F)(F)OC(F)(F)CO [1H,1H,11H,11H-Perfluorotetraethylene glycol]										0	100
FC(F)(F)C(F)(F)C(F)(F)CC1CO1 (configuration not stated) [1H,1H-Heptafluorobutyl epoxide] (max tested concentration (log10 uM): 2)	9.09	9.09	0	9.09		0	9.09	9.09	0		
O=S(=O)(OCC(F)(F)F)C(F)(F)C(F)(F)C(F)(F)C(F)(F)F [2,2,2-Trifluoroethyl perfluorobutanesulfonate] (max tested concentration (log10 uM): 2)	54.5	31.8	0	9.09		0	4.55	90.9	11.4		
O=P(O)(O)CCC(F)(F)C(F)(F)C(F)(F)C(F)(F)C(F)(F)C(F)(F)F [2-(Perfluorohexyl)ethylphosphonic acid] (max tested concentration (log10 uM): 2)	60	0	0	20		0	0	40	10		
O=C(O)C=C(C(F)(F)F)C(F)(F)F [3,3-Bis(trifluoromethyl)-2-propenoic acid] (max tested concentration (log10 uM): 2)	2.08	0	0	0		0	0	0	0		
O=C(O)CCC(F)(F)C(F)(F)C(F)(F)F [3:3 Fluorotelomer carboxylic acid] (max tested concentration (log10 uM): 2)	17.5	10	0	10		0	2.5	20	7.5		
OCCCCC(F)(F)C(F)(F)C(F)(F)C(F)(F)F [4:4 Fluorotelomer alcohol] (max tested concentration (log10 uM): 2)	93.8	0	0	81.2		0	15.6	93.8	18.8		
